Laboratory results as given in patent publication US11730712B2, “Functionalized long-chain hydrocarbon mono- and di-carboxylic acids and derivatives thereof, and their use for the prevention or treatment of disease” (ESPERVITA THERAPEUTICS, INC., priority 2021, dated 2023).
pIC50: −log10 of the molar value. Values joined by “and” are separate entries in the source; they are usually repeats but may differ in a detail not shown here. Equal values may be shown once.

Assays:
DDR2 = biological target: T1, DDR2 (Homo sapiens, UniProt Q16832); assay: Kinase assay, wild type kinases; type: biochemical; conditions: compound 10 μM, 10 μM ATP, duplicate (Data 1, Data 2), >100 activation, <100 inhibition; for remaining activity at 10 µM: read-out: % Enzyme Activity (relative to DMSO controls), DDR2
T1 sequence (Q16832 22-855): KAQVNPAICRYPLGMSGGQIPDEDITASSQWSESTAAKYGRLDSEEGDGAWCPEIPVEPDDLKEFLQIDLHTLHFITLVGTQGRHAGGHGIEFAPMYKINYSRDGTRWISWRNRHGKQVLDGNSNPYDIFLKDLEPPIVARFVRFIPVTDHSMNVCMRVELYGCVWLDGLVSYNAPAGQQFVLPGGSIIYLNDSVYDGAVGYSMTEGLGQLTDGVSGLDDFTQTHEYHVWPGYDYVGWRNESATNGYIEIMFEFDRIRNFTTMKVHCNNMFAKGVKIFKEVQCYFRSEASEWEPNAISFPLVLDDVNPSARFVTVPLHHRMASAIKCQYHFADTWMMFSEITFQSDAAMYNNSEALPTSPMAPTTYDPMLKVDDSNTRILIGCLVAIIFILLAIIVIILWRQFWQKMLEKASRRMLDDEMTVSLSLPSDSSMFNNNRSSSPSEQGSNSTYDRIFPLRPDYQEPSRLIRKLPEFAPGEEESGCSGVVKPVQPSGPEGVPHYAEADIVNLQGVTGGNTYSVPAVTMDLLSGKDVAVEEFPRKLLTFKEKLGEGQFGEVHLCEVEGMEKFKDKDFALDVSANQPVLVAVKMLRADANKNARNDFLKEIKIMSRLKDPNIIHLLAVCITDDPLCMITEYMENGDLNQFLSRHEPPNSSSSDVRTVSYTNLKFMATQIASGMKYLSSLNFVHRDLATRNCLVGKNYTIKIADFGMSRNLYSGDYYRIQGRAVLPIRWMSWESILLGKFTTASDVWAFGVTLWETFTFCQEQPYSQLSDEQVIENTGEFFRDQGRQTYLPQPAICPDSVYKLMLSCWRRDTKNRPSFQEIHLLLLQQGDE

Hepa1-6 cells = assay: Hepa1-6 cell proliferation; type: cell-based; conditions: with or without regorafenib (5 μM)
From the text: FIG. 37 show anti-proliferative effect of illustrative compounds of the invention in Hepa1-6 cells.

[1] = tested on: Hep3B human hepatocarcinoma cells; assay: Colony formation assay (clonogenic survival, 7 days); type: cell-based; conditions: 168 h, read-out: Hep3B (IC50), anti-clonogenic activity
Description: (§1) Colony formation assay. Hep3B and Hepa1-6 cells were seeded in 12-well plates at a cell density of 1000 and 500 cells/well, respectively. On day 2, media in each well was aspirated and replaced with 1000 μl of fresh complete media and cells were treated with or without the respective drugs in an increasing concentration followed by the incubation of the cells for 7 days in an incubator.
(§2) On day 9, the media in each well was aspirated and cells were fixed with 10% formalin (500 μl) for 10 minutes at room temperature. Formalin was aspirated and the plates were washed with 1×PBS and stained with crystal violet for another 10 minutes. After 10 minutes of staining, crystal violet was […] the cells, rinsed with tap water for three times and the plates were dried overnight. Next day, colonies (>50 cells) were counted and analyzed.
(§3) Statistical tests. Results were indicated as mean±standard deviation (SD). All line graphs were prepared using Graph Pad Prism 8 software. Proliferation and clonogenics IC50 values were calculated using a non-linear regression model in Graph pad Prism 8.

[2] = tested on: Hepa1-6 murine hepatoma cells; assay: as above; type: cell-based; conditions: Mus musculus, Hepa1-6, 168 h, read-out: Hepa1-6 (IC50), anti-clonogenic activity
Description: as §1, §2, §3

CAMK2g = CAMK2g (Homo sapiens, UniProt Q13555); assay: Kinase assay, wild type kinases; type: biochemical; conditions: compound 10 μM, 10 μM ATP, duplicate (Data 1, Data 2), >100 activation, <100 inhibition; for remaining activity at 10 µM: read-out: % Enzyme Activity (relative to DMSO controls), CAMK2g
PIM3 = PIM3 (Homo sapiens, UniProt Q86V86); assay: Kinase assay, wild type kinases; type: biochemical; conditions: compound 10 μM, 10 μM ATP, duplicate (Data 1, Data 2), >100 activation, <100 inhibition; for remaining activity at 10 µM: read-out: % Enzyme Activity (relative to DMSO controls), PIM3
Aurora A = biological target: T2, Aurora A (Homo sapiens, UniProt O14965); assay: Kinase assay, wild type kinases; type: biochemical; conditions: compound 10 μM, 10 μM ATP, duplicate (Data 1, Data 2), >100 activation, <100 inhibition; for remaining activity at 10 µM: read-out: % Enzyme Activity (relative to DMSO controls), Aurora A
T2 sequence (O14965 1-403): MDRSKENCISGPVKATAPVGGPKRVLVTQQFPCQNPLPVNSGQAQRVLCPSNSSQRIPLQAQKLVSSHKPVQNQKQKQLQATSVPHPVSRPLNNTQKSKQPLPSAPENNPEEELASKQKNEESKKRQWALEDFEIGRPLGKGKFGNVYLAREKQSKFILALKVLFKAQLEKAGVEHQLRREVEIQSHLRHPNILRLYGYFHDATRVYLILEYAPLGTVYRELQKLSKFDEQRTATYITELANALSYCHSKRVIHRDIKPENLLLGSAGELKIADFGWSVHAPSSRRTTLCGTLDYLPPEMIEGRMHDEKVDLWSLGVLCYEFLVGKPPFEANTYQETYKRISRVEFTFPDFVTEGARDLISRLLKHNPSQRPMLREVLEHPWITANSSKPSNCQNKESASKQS

| Structure (SMILES) | remaining activity at 10 µM (DDR2) | effect on proliferation (Hepa1-6 cells) | pIC50 [1] | pIC50 [2] | remaining activity at 10 µM (CAMK2g) | remaining activity at 10 µM (PIM3) | remaining activity at 10 µM (Aurora A) | % Enzyme Activity (relative to DMSO controls), DDR2 (DDR2) | % Enzyme Activity (relative to DMSO controls), CAMK2g (CAMK2g) | % Enzyme Activity (relative to DMSO controls), PIM3 (PIM3) | % Enzyme Activity (relative to DMSO controls), Aurora A (Aurora A) |
| --- | --- | --- | --- | --- | --- | --- | --- | --- | --- | --- | --- |
| CC(C)(CCCCc1ccc(CCCCC(C)(C)C(=O)O)cc1)C(=O)O [Compound I-1, 6-[4-(5-carboxy-5-methylhexyl)-phenyl]-2,2-dimethylhexanoic acid] | 79.8% | anti-proliferation effect | 4.30 | 4.17 | 60.6% | 87.9% | 89.1% | – | – | – | – |
| CC(C)(CCCCc1cccc(CCCCC(C)(C)C(=O)O)c1)C(=O)O [Compound I-32, 6-[3-(5-carboxy-5-methylhexyl)-phenyl]-2,2-dimethylhexanoic acid] | 91.4% | anti-proliferation effect | 4.39 | 4.23 | 73.2% | 90% | 94.9% | – | – | – | – |
| CC(C)(CCCCc1cccc(CCCCC(C)(C)C(=O)SCCNC(=O)CCNC(=O)[C@H](O)C(C)(C)COP(=O)(O)OP(=O)(O)OC[C@H]2O[C@@H](n3cnc4c(N)ncnc43)[C@H](O)[C@@H]2OP(=O)(O)O)c1)C(=O)O [Compound I-32-CoA, 6-[3-(5-Carboxy-5-methylhexyl)-phenyl]-2,2-dimethylhexanoic acid Coenzyme A Ester] | – | – | – | – | – | – | – | 29.98% and 25.40% | 35.05% and 34.20% | 51.10% and 43.67% | 13.04% and 11.95% |
| CC(C)(CCCCc1ccc(CCCCC(C)(C)C(=O)SCCNC(=O)CCNC(=O)[C@H](O)C(C)(C)COP(=O)(O)OP(=O)(O)OC[C@H]2O[C@@H](n3cnc4c(N)ncnc43)[C@H](O)[C@@H]2OP(=O)(O)O)cc1)C(=O)O [Compound I-1-CoA, 6-[4-(5-carboxy-5-methylhexyl)-phenyl]-2,2-dimethylhexanoic acid Coenzyme A ester] | – | – | – | – | – | – | – | 88.28% and 79.94% | 53.91% and 53.05% | 73.92% and 70.32% | 12.44% and 12.42% |
